Measurements as given in US4112097A, “Antihypertensive agents” (Abbott Laboratories, priority 1977, dated 1978).
Counter-ions that a name gives are not always drawn.

Assays:
physchem = details: water
Procedure: The water in the filtrate was removed in vacuo and the residue weighed and found to be 16.7 mg.

[1] = tested on: spontaneously hypertensive (SH) rats; test: Antihypertensive effect (blood pressure and heart rate) in spontaneously hypertensive rats; format: in vivo, rat; details: for Percent Change BP (blood pressure) / Percent Change HR (heart rate): N=4, mean; for Percent Change (antihypertensive effect): individual values of 2 rats
Procedure: The screening is conducted as follows:
Male spontaneously hypertensive (SH) rats are trained to be restrained in a wire mesh cylinder in a warming box, at least two training cycles being conducted before testing. The rats are warmed for about 1/2 hour period to blood pressure measurement, the warming box being maintained at a constant temperature of 36° C.
An occluding cuff attached to the programed sphymomanometer is placed near the base of the tail of each rat and the pressure in the cuff is increased automatically from 0 to 250 milimeters of mercury (mm Hg) at a rate of 10 mm Hg per second. The total time for each cycle of inflation and deflation of the cuff is 50 seconds and the interval between cycles is one minute.
A photocell is placed distal to the cuff to record the pulses due to forward motion of blood flow with each heart beat. As the pressure in the cuff increases, the pulse disappears completely at a point where cuff pressure equals or exceeds the arterial blood pressure and it reappears during deflation at approximately the same pressure. Five interference free signals for deflation are recorded for each rat. Rats with a blood pressure of 180 mm Hg or more during the control period are used in the study. Blood pressure and heart rate readings are recorded on a model VII Grass polygraph at intervals of 1, 3, 5 and 24 hours after administration of the drug.

[2] = intraperitoneal 0.3 mg/kg, 1 hour
[3] = intraperitoneal 0.3 mg/kg, 3 hours
[4] = intraperitoneal 0.3 mg/kg, 5 hours
[5] = intraperitoneal 0.3 mg/kg, 24 hours
[6] = intraperitoneal 1 mg/kg, 1 hour
[7] = intraperitoneal 1 mg/kg, 3 hours
[8] = intraperitoneal 1 mg/kg, 5 hours
[9] = intraperitoneal 1 mg/kg, 24 hours
[10] = intraperitoneal 3 mg/kg, 1 hour
[11] = intraperitoneal 3 mg/kg, 3 hours
[12] = intraperitoneal 3 mg/kg, 5 hours
[13] = intraperitoneal 3 mg/kg, 24 hours
[14] = intraperitoneal 10 mg/kg, 1 hour
[15] = intraperitoneal 10 mg/kg, 3 hours
[16] = intraperitoneal 10 mg/kg, 5 hours
[17] = intraperitoneal 10 mg/kg, 24 hours
[18] = intraperitoneal 30 mg/kg, 1 hour
[19] = intraperitoneal 30 mg/kg, 3 hours
[20] = intraperitoneal 30 mg/kg, 5 hours
[21] = intraperitoneal 30 mg/kg, 24 hours

## COc1cc2nc(N3CCN(C(=O)C4CCCCO4)CC3)nc(N)c2cc1OC (centres unmarked) [2-[4(Tetrahydropyran-2-Carbonyl)Piperazinyl]-4-Amino-6,7-Dimethoxyquinazoline Hydrochloride]
physchem
  solubility: 56.5 mg/mL

## COc1cc2nc(N3CCN(C(=O)C4CCCO4)CC3)nc(N)c2cc1OC (centres unmarked) [Formula II, 2[4(tetrahydro-2-furoyl)-piperazino]-4-amino-6,7-dimethoxyquinazoline]
[1]; SH rats
  antihypertensive effect in words: potent antihypertensive agents which lower the blood pressure of spontaneously hypertensive rats
  heart rate in words: without causing any significant changes in heart rate
[1]; [2]
  Percent Change BP (blood pressure): -22.3%
  Percent Change HR (heart rate): 20.0%
[1]; [3]
  Percent Change BP (blood pressure): -26.5%
  Percent Change HR (heart rate): 10.3%
[1]; [4]
  Percent Change BP (blood pressure): -20.5%
  Percent Change HR (heart rate): 14.3%
[1]; [5]
  Percent Change BP (blood pressure): 2.5%
  Percent Change HR (heart rate): 10.0%
[1]; [6]
  Percent Change BP (blood pressure): -26.5%
  Percent Change HR (heart rate): 22.8%
[1]; [7]
  Percent Change BP (blood pressure): -27.5%
  Percent Change HR (heart rate): 2.8%
[1]; [8]
  Percent Change BP (blood pressure): -17.0%
  Percent Change HR (heart rate): 11.5%
[1]; [9]
  Percent Change BP (blood pressure): 3.8%
  Percent Change HR (heart rate): -9.5%
[1]; [10]
  Percent Change BP (blood pressure): -45.3%
  Percent Change HR (heart rate): 7.8%
[1]; [11]
  Percent Change BP (blood pressure): -39.0%
  Percent Change HR (heart rate): -1.5%
[1]; [12]
  Percent Change BP (blood pressure): -40.0%
  Percent Change HR (heart rate): 3.0%
[1]; [13]
  Percent Change BP (blood pressure): -2.3%
  Percent Change HR (heart rate): -0.5%
[1]; [14]
  Percent Change BP (blood pressure): -49.8%
  Percent Change HR (heart rate): 9.0%
[1]; [15]
  Percent Change BP (blood pressure): -41.5%
  Percent Change HR (heart rate): 24.5%
[1]; [16]
  Percent Change BP (blood pressure): -41.8%
  Percent Change HR (heart rate): 34.5%
[1]; [17]
  Percent Change BP (blood pressure): -7.5%
  Percent Change HR (heart rate): 14.0%
[1]; [18]
  Percent Change BP (blood pressure): -59.5%
  Percent Change HR (heart rate): -9.0%
[1]; [19]
  Percent Change BP (blood pressure): -42.3%
  Percent Change HR (heart rate): 1.8%
[1]; [20]
  Percent Change BP (blood pressure): -44.5%
  Percent Change HR (heart rate): 5.3%
[1]; [21]
  Percent Change BP (blood pressure): -22.3%
  Percent Change HR (heart rate): 5.8%
[1]; oral 0.03 mg/kg, 1 hour
  Percent Change BP (blood pressure): -5.3%
  Percent Change HR (heart rate): -4.3%
[1]; oral 0.03 mg/kg, 3 hours
  Percent Change BP (blood pressure): -1.8%
  Percent Change HR (heart rate): -8.5%
[1]; oral 0.03 mg/kg, 5 hours
  Percent Change BP (blood pressure): -9.3%
  Percent Change HR (heart rate): -14.5%
[1]; oral 0.03 mg/kg, 24 hours
  Percent Change BP (blood pressure): -3.3%
  Percent Change HR (heart rate): -8.8%
[1]; oral 0.1 mg/kg, 1 hour
  Percent Change BP (blood pressure): 3.8%
  Percent Change HR (heart rate): 3.0%
[1]; oral 0.1 mg/kg, 3 hours
  Percent Change BP (blood pressure): 1.8%
  Percent Change HR (heart rate): 4.8%
[1]; oral 0.1 mg/kg, 5 hours
  Percent Change BP (blood pressure): -7.3%
  Percent Change HR (heart rate): -6.8%
[1]; oral 0.1 mg/kg, 24 hours
  Percent Change BP (blood pressure): -1.5%
  Percent Change HR (heart rate): -0.3%
[1]; oral 0.3 mg/kg, 1 hour
  Percent Change BP (blood pressure): -15.8%
  Percent Change HR (heart rate): -1.0%
[1]; oral 0.3 mg/kg, 3 hours
  Percent Change BP (blood pressure): -22.8%
  Percent Change HR (heart rate): -2.8%
[1]; oral 0.3 mg/kg, 5 hours
  Percent Change BP (blood pressure): -21.3%
  Percent Change HR (heart rate): -2.8%
[1]; oral 0.3 mg/kg, 24 hours
  Percent Change BP (blood pressure): 2.0%
  Percent Change HR (heart rate): 10.5%
[1]; oral 1 mg/kg, 1 hour
  Percent Change BP (blood pressure): -15.8%
  Percent Change HR (heart rate): -9.0%
[1]; oral 1 mg/kg, 3 hours
  Percent Change BP (blood pressure): -17.3%
  Percent Change HR (heart rate): -9.3%
[1]; oral 1 mg/kg, 5 hours
  Percent Change BP (blood pressure): -22.5%
  Percent Change HR (heart rate): -8.5%
[1]; oral 1 mg/kg, 24 hours
  Percent Change BP (blood pressure): 3.5%
  Percent Change HR (heart rate): -4.5%
[1]; oral 3 mg/kg, 1 hour
  Percent Change BP (blood pressure): -29.0%
  Percent Change HR (heart rate): -9.3%
[1]; oral 3 mg/kg, 3 hours
  Percent Change BP (blood pressure): -33.3%
  Percent Change HR (heart rate): -11.0%
[1]; oral 3 mg/kg, 5 hours
  Percent Change BP (blood pressure): -31.5%
  Percent Change HR (heart rate): -11.0%
[1]; oral 3 mg/kg, 24 hours
  Percent Change BP (blood pressure): -12.3%
  Percent Change HR (heart rate): -5.3%
[1]; oral 10 mg/kg, 1 hour
  Percent Change BP (blood pressure): -37.0%
  Percent Change HR (heart rate): 12.3%
[1]; oral 10 mg/kg, 3 hours
  Percent Change BP (blood pressure): -42.0%
  Percent Change HR (heart rate): 16.5%
[1]; oral 10 mg/kg, 5 hours
  Percent Change BP (blood pressure): -38.0%
  Percent Change HR (heart rate): -10.3%
[1]; oral 10 mg/kg, 24 hours
  Percent Change BP (blood pressure): -12.0%
  Percent Change HR (heart rate): 1.5%
[1]; oral 30 mg/kg, 1 hour
  Percent Change BP (blood pressure): -30.0%
  Percent Change HR (heart rate): -9.8%
[1]; oral 30 mg/kg, 3 hours
  Percent Change BP (blood pressure): -23.8%
  Percent Change HR (heart rate): -8.8%
[1]; oral 30 mg/kg, 5 hours
  Percent Change BP (blood pressure): -26.0%
  Percent Change HR (heart rate): -15.5%
[1]; oral 30 mg/kg, 24 hours
  Percent Change BP (blood pressure): -4.0%
  Percent Change HR (heart rate): -8.0%

## COc1cc2nc(N3CCN(C(=O)C4CCCCO4)CC3)nc(N)c2cc1OC (centres unmarked) [Formula III, 2-[4(tetrahydropyran-2-carbonyl)piperazinyl]-4-amino-6,7-dimethoxyquinazoline]
[1]; [18]
  Percent Change (antihypertensive effect): -58%
[1]; [19]
  Percent Change (antihypertensive effect): -71%
[1]; [20]
  Percent Change (antihypertensive effect): -47%
[1]; [21]
  Percent Change (antihypertensive effect): -28%
[1]; oral 1 mg/kg, 1 hour, 1 mg/kg
  Percent Change (antihypertensive effect): -34%
[1]; oral 1 mg/kg, 3 hours, 1 mg/kg
  Percent Change (antihypertensive effect): -25%
[1]; oral 1 mg/kg, 5 hours, 1 mg/kg
  Percent Change (antihypertensive effect): -21%
[1]; oral 1 mg/kg, 24 hours, 1 mg/kg
  Percent Change (antihypertensive effect): -7%
